Test results reported in patent US3949075A, “Anti-microbial compounds of 2', 4' substituted anilides of substituted nitrosalicylic acid for quadruped animals” (Ferro Corporation, priority 1974, dated 1976).
Like-named read-outs stand apart in the source and are kept apart here.

Assays:
[1] = system: Fasciola hepatica; assay: Test for activity against liver flukes, Fasciola hepatica, in infected sheep; format: in vivo
Method: Test for activity against liver flukes were conducted as follows:
Eggs of Fasciola hepatica were collected from the bile of donor sheep. The eggs were embryonated and snails were infected (the genus Lymnaea serves as intermediate host) to produce Metacercariae which are the infective forms for sheep. Each sheep was infected with 250 metacercariae intraruminally. When the infection became patent in ca. 80 days, egg counts were carried out to determine the degree of worm burden. The liver was processed to recover F. hepatica in the untreated and treated sheep.
(§1) The data of the tables were generated using procedures previously described. The compounds tested are disubstituted and, except for Example 50 which is dibromo, are dichloro. Where the position for the substituents is other than 2' and 4', it is indicated. Under the indicated microorganisms, the values given in this and the following tables, should be read as: percentage of microorganism killed/dose in milligrams per kilogram of body weight. Under "Tolerance", the term "Tol." means "tolerated", "Tox." means "toxic", and "Sym." means "symptoms of toxic reaction", all at the dosage value which follows. It will be appreciated that there is no sharp toxicity end point in determining toxicity to living sheep.

[2] = system: sheep; assay: Tolerance / toxicity in sheep; format: in vivo; parameters: key to Tolerance at 100 mg/kg / Tolerance at 50 mg/kg: "toxic" refers to death of sheep resulting from the use of the indicated compound at the indicated dosage; key to Tolerance: Tol.: tolerated; Tox.: toxic; Sym.: symptoms of toxic reaction; details: for Tolerance at 50 mg/kg: Tables III and IV
Method: (§2) The results of tests on sheep in a manner described, supra, using compounds of the present invention are given in Table 1, Examples 5 through 13. The numbers in the column headed "Haemonchus (15 mg/kg)" refer to the percent of parasites destroyed or expelled when the indicated compound was introduced into the rumen of sheep at a dosage of 15 milligrams per kilogram of body weight. The values under "Tolerance (mg/kg)" refer to the highest test dosage in the milligrams of anthelmintic per kilogram of body weight at which the sheep developed no toxic symptoms. "Tol." is an abbreviation for "tolerated". The symbols R1 and R2 refer to those of Formula I in these and other following examples.
(§3) The importance of the 2',4' substitution on the anilide moiety of Formula I is illustrated by the case of the dichloro substitution as summarized in Table III. […] This has been mentioned briefly hereinabove. As used herein, "toxic" refers to death of sheep resulting from the use of the indicated compound at the indicated dosage.
as §1

[3] = system: Haemonchus contortus; assay: Percent of Haemonchus destroyed or expelled in infected sheep (egg count after treatment); format: in vivo, Haemonchus contortus (in sheep); details: for inhibition in vivo at 2 mg/kg / inhibition in vivo at 5 mg/kg / inhibition in vivo at 15 mg/kg: Haemonchus contortus
Method: Two groups of sheep were used in the tests. One group was used as a non-medicated control, while the other group was treated with the compound under investigation. Helminth-free young lambs were infected with about 10,000 filariform larvae of Haemonchus contortus. In three weeks when the infection became apparent, egg counts were made to determine the density of the worm burden.
The egg count was carried out using the following modified Stoll method. Three grams of sheep feces were taken rectally from each animal and placed in a Stoll flask. To each flask, tap water was added to the top line. The fecal pellets were too hard to break down, the flasks were closed with rubber stoppers and kept in the refrigerator for several hours. The flasks were thoroughly shaken and a 1 ml. sample was drawn from the middle using a wide mouth pipette. This 1 ml. sample was transferred to an 8 ml. plastic tube, to which enough saturated sodium chloride solution was added to reach the rim. The tubes were then centrifuged for 10 minutes at 1500 r.p.m. Then sodium chloride solution was added with a medicine dropper forming a concave miniscus. A cover glass was carefully added and the tubes were kept in a refrigerator for ten to twenty minutes. During that period, the nematode ova flowed upward and adhered to the bottom of the cover glass slip. At the end of the 20-minute period, the cover slip was carefully detached from the miniscus and transferred to a microscopic slide. The ova were then counted under a microscope equipped with 10X ocular and 10X objective lens. Each ovum under the microscope represented 20 ova in the sample.
Animals with sufficiently high egg counts were taken out of the pool and housed in experimental pens. Since the salicylanilides of the present invention are water insoluble, the compounds were first ground using a mortar and pestle and then were placed in a carboxymethyl cellulose solution. The particles were further micronized ultrasonically. The compound was then administered to two or three animals by Oesophageal gavage. Control, untreated animals, received only the carboxymethyl cellulose solution in a similar manner. On the sixth and seventh day after treatment, fecal pellets were taken from the rectum of the control as well as the treated animals and egg counts were made.
as §2, §1

[4] = system: Haemonchus and Fasciola hepatica; assay: Dual activity against Haemonchus and Fasciola in sheep and therapeutic ratio; format: in vivo; details: sheep
[5] = Tolerance / toxicity in sheep; format: in vivo; parameters: key to Tolerance at 100 mg/kg / Tolerance at 50 mg/kg: "toxic" refers to death of sheep resulting from the use of the indicated compound at the indicated dosage; key to Tolerance: Tol.: tolerated; Tox.: toxic; Sym.: symptoms of toxic reaction; details: in vivo, Table 1, read-out: Tolerance, highest test dosage at which the sheep developed no toxic symptoms
Method: as §2, §3, §1

[6] = Fasciola hepatica, sheep, Tables VIII-XI, read-out: Fasciola hepatica, percentage of microorganism killed
[7] = Fasciola hepatica, sheep, 15 mg/kg, Tables VIII-XI, read-out: Fasciola hepatica, percentage of microorganism killed
[8] = sheep, 2 mg/kg, Tables VIII-XI, read-out: Haemonchus, percentage of microorganism killed
[9] = sheep, 5 mg/kg, Tables VIII-XI, read-out: Haemonchus, percentage of microorganism killed
[10] = sheep, into rumen, 2 mg/kg, Table 1
[11] = sheep, into rumen, 5 mg/kg, Table 1
[12] = iv, sheep, 15 mg/kg, Tables III and IV, read-out: Effectiveness (%) at 15 mg/kg
[13] = sheep, 5 mg/kg, Tables III and IV
[14] = sheep, 15 mg/kg, Tables VIII-XI, read-out: Haemonchus, percentage of microorganism killed

Row | SMILES | inhibition in vivo at 5 mg/kg [1, 6] | inhibition in vivo at 15 mg/kg [1, 7] | Tolerance ([2]; 50 mg./kg., Tables VIII-X) | inhibition in vivo at 2 mg/kg [3, 8] | inhibition in vivo at 5 mg/kg [3, 9] | inhibition in vivo at 2 mg/kg [1, 6] | Haemonchus (2 mg/kg), percent of parasites destroyed or expelled [3, 10] | Haemonchus (5 mg/kg), percent of parasites destroyed or expelled [3, 11] | Tolerance at 50 mg/kg ([2]; 50 mg/kg) | inhibition in vivo at 15 mg/kg [3, 12] | Effectiveness (%) at 5 mg/kg [3, 13] | inhibition in vivo at 15 mg/kg [3, 14] | further results
1 | Cc1cc(I)ccc1NC(=O)c1c(C)c([N+](=O)[O-])cc(C(C)(C)C)c1O [Example 66] | 100% | 100% | Sym. | 13% | 88% | – | – | – | – | – | – | – | –
2 | Cc1c([N+](=O)[O-])cc(C(C)(C)C)c(O)c1C(=O)Nc1ccc(Br)cc1C(F)(F)F [Example 11] | 100% | – | – | 99.8% | 100% | 100% | 99.8% | 100% | – | – | – | – | inhibition in vivo at 0.5 mg/kg ([1]; Fasciola hepatica, sheep, 0.5 mg/kg, Table X, read-out: Fasciola hepatica, percentage of microorganism killed): 97%; inhibition in vivo at 1 mg/kg ([1]; Fasciola hepatica, sheep, 1 mg/kg, Tables VIII and X, read-out: Fasciola hepatica, percentage of microorganism killed): 100%; overall activity ranking, in words ([4]; Table X): most active compounds of the invention; Tolerance ([2]; 20 mg./kg., Table X): Tol.; Tolerance ([2]; 35 mg./kg., Table X): Tol.; Tolerance, highest test dosage at which the sheep developed no toxic symptoms ([2]; Table 1, listed as 12): ≥ 35 mg/kg; NOAEL [5]: ≥ 20 mg/kg
3 | Cc1c([N+](=O)[O-])cc(C(C)(C)C)c(O)c1C(=O)Nc1cc(Cl)ccc1Cl [Example 24, reference compound] | 0% | – | Tol. | – | 61% | – | – | – | toxic | 100% | 61% | – | inhibition in vivo at 15 mg/kg ([1]; Fasciola hepatica, read-out: Fasciola hepatica, percentage of microorganism killed): 100%; activity against Fasciola, in words ([1]; sheep): no activity; clinical effectiveness against either parasite, in words ([4]; 5 mg./kg.): would not be clinically effective against either parasite; toxic effects at 50 mg./kg. ([2]; 50 mg/kg): shows toxic effects; inhibition in vivo at 15 mg/kg ([3]; read-out: Haemonchus, percentage of microorganism killed, sheep, 15 mg/kg, Tables VIII-XI): 100%; activity at 5 mg./kg. ([3]; sheep, 5 mg/kg): 61%
4 | Cc1c([N+](=O)[O-])cc(C(C)(C)C)c(O)c1C(=O)Nc1ccc(Cl)c(Cl)c1 [Example 25] | 95% | 100% | Tox. | – | 20% | 0% | – | – | toxic | 100% | 20% | 100% | Tolerance ([2]; 15 mg./kg., Tables VIII, X): Tox.
5 | Cc1cc(Br)ccc1NC(=O)c1c(C)c([N+](=O)[O-])cc(C(C)(C)C)c1O [Example 64] | 100% | – | Tox. | – | 100% | – | – | – | – | – | – | – | Tolerance ([2]; 50 mg./kg., Tables VIII-X, listed as 65): Sym.; inhibition in vivo at 2 mg/kg ([3]; read-out: Haemonchus, percentage of microorganism killed, sheep, 2 mg/kg, Tables VIII-XI): 38%
6 | Cc1c([N+](=O)[O-])cc(C(C)(C)C)c(O)c1C(=O)Nc1ccc(I)cc1 [Example 9] | – | 0% | – | – | 22% | – | 14% | 22% | – | – | – | 93% | inhibition in vivo at 15 mg/kg ([3]; read-out: Effectiveness at 15 mg/kg against Haemonchus, sheep, 15 mg/kg, Table V): 93%; Haemonchus (15 mg/kg), percent of parasites destroyed or expelled ([3]; sheep, into rumen, 15 mg/kg, Table 1): 93%
